PMC6660241 (The Journal of organic chemistry, 2019)
Where two headings read alike, the source gives them in different places.

Key:
[1] = molecular target: T1, A. ureafaciens sialidase (Paenarthrobacter ureafaciens, UniProt Q5W7Q2); assay: Sialidase inhibition assay; type: biochemical, Arthrobacter ureafaciens; conditions: read-out: Percentage inhibition, A. ureafaciens
[2] = molecular target: C. perfringens sialidase (CpNanI) (Clostridium perfringens, UniProt A0A0H2YQR1); assay: biochemical
[3] = molecular target: T2, SpNanA (Streptococcus pneumoniae, UniProt P62575); assay: biochemical
T2 sequence (P62575 54-1035): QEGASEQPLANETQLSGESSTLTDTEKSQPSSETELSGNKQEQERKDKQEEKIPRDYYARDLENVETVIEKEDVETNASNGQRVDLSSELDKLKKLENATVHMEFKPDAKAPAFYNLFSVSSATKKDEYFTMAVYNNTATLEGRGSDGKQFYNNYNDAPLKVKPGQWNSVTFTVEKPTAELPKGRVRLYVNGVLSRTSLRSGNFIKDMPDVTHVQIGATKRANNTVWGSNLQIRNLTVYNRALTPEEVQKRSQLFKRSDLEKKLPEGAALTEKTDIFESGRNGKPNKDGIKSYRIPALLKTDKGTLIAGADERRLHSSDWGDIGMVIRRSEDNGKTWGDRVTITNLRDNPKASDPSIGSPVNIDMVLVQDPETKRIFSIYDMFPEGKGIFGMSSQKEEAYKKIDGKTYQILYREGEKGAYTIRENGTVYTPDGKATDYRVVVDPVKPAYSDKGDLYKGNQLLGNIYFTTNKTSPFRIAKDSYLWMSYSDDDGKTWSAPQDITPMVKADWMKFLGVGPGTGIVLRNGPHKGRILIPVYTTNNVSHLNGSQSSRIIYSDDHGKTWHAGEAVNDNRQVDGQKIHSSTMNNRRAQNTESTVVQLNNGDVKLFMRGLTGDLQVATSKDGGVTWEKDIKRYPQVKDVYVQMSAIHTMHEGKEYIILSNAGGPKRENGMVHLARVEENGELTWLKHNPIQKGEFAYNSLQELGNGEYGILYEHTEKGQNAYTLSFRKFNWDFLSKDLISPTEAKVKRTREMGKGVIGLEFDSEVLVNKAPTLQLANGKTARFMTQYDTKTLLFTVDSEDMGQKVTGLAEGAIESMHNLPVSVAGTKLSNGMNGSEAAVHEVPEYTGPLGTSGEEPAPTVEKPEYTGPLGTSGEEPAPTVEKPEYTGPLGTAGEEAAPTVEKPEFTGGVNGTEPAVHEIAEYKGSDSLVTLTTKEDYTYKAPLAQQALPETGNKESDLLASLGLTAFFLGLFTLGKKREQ

[4] = molecular target: SpNanB (Streptococcus pneumoniae serotype 4, UniProt Q54727); assay: biochemical; conditions: for inhibition at 100 µM / inhibition at 1000 µM: read-out: Percentage inhibition, SpNanB
Chain of SpNanB (Q54727 30-697): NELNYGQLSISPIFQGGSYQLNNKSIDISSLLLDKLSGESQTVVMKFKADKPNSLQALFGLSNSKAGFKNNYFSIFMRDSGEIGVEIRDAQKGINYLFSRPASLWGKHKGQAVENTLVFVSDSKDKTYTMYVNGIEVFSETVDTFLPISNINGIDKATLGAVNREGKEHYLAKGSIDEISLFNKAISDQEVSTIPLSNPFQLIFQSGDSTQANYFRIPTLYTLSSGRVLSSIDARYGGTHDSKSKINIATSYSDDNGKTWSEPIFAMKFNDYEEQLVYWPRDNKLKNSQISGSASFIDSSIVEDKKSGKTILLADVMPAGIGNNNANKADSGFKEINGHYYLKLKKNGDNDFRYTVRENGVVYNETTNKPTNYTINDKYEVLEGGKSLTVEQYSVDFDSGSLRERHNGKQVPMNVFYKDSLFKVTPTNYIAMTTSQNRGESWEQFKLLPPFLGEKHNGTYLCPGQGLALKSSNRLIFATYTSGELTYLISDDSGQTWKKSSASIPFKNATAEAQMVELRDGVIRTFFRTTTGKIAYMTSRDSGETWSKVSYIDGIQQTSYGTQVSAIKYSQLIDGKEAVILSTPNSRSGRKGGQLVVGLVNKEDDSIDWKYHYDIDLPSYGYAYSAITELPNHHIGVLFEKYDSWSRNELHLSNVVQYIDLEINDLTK

[5] = molecular target: T3, SpNanC (Streptococcus pneumoniae, UniProt A0A0H2UQE4); assay: biochemical; conditions: for inhibition at 100 µM / inhibition at 1000 µM: read-out: Percentage inhibition, SpNanC
[6] = molecular target: T4, V. cholerae sialidase (Vibrio cholerae serotype O1, UniProt P0C6E9); assay: biochemical; type: biochemical
T4 sequence (P0C6E9 25-781): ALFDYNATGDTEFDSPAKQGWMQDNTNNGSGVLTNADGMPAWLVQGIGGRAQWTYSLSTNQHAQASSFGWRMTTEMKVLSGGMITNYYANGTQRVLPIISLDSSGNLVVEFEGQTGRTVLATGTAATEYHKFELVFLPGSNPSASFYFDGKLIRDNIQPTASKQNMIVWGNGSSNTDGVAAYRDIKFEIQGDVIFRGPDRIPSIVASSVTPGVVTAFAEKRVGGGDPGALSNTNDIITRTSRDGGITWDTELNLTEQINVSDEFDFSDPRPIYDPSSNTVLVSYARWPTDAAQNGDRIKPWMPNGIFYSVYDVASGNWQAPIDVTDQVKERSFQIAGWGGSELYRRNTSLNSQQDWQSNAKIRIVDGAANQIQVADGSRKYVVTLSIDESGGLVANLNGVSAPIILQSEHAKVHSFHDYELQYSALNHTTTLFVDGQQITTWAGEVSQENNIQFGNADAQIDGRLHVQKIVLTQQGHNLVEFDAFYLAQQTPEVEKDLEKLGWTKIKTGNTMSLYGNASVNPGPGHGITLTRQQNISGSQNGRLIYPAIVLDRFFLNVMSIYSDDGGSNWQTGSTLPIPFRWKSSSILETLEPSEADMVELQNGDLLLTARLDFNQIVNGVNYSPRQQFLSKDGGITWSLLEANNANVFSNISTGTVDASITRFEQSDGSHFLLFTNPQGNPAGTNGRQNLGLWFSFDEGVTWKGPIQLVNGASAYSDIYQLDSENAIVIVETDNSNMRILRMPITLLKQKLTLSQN

[7] = molecular target: T5, BiNanH2 (Bifidobacterium longum subsp. infantis, UniProt A0ACD7UU12); assay: biochemical; type: biochemical, Bifidobacterium longum subsp. infantis ATCC15697
[8] = molecular target: T6, PmST1 (Pasteurella multocida, UniProt Q15KI8); assay: biochemical; conditions: for inhibition at 100 µM / inhibition at 1000 µM: read-out: Percentage inhibition, PmST1
[9] = molecular target: T7, hNEU2 (Homo sapiens, UniProt Q9Y3R4); assay: Sialidase inhibition assay; type: biochemical; conditions: read-out: Percentage inhibition, hNEU2
T7 sequence (Q9Y3R4 whole entry): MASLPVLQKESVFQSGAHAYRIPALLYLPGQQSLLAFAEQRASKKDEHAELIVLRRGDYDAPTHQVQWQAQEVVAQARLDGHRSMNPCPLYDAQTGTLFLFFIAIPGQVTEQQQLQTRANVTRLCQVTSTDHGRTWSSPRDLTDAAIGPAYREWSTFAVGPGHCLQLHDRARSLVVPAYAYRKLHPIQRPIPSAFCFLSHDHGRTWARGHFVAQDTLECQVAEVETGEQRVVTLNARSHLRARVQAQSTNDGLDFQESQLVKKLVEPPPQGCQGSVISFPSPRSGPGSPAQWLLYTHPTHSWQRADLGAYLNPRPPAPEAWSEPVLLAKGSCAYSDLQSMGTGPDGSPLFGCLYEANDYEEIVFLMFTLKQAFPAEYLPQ

[10] = test system: C. perfringens sialidase CpNanI; type: biochemical, Clostridium perfringens; conditions: inhibitor:sialidase 2:1 molar ratio, 23 °C; for sensitivity of CpNanI to the covalent inhibitor in the time course study: Figures 2A, S2A
[11] = molecular target: T4, V. cholerae sialidase; type: biochemical; conditions: inhibitor:sialidase 2:1 molar ratio; 23 °C
[12] = molecular target: T2, SpNanA; type: biochemical; conditions: inhibitor:sialidase 2:1 molar ratio, 23 °C
[13] = molecular target: T5, BiNanH2; type: biochemical, Bifidobacterium longum subsp. infantis ATCC15697; conditions: inhibitor:sialidase 2:1 molar ratio, 23 °C
[14] = molecular target: T7, hNEU2; type: biochemical; conditions: inhibitor:sialidase 2:1 molar ratio; 23 °C; Figures 2E, S2E
[15] = molecular target: T1, A. ureafaciens sialidase; conditions: read-out: IC50, A. ureafaciens; substrate Neu5Acα2–3GalβpNP; ref [47]; cited from earlier work
[16] = molecular target: T3, SpNanC; conditions: read-out: IC50, SpNanC; substrate Neu5Acα2–3GalβpNP; ref [25]; cited from earlier work
[17] = molecular target: T6, PmST1; conditions: read-out: IC50, PmST1; substrate Neu5Acα2–3GalβpNP; ref [25]; cited from earlier work
[18] = read-out: Percentage inhibition, C. perfringens
[19] = read-out: Percentage inhibition, SpNanA
[20] = read-out: Percentage inhibition, V. cholerae
[21] = read-out: Percentage inhibition, BiNanH2

Chain of C. perfringens sialidase (CpNanI) (A0A0H2YQR1 27-694 limits assumed): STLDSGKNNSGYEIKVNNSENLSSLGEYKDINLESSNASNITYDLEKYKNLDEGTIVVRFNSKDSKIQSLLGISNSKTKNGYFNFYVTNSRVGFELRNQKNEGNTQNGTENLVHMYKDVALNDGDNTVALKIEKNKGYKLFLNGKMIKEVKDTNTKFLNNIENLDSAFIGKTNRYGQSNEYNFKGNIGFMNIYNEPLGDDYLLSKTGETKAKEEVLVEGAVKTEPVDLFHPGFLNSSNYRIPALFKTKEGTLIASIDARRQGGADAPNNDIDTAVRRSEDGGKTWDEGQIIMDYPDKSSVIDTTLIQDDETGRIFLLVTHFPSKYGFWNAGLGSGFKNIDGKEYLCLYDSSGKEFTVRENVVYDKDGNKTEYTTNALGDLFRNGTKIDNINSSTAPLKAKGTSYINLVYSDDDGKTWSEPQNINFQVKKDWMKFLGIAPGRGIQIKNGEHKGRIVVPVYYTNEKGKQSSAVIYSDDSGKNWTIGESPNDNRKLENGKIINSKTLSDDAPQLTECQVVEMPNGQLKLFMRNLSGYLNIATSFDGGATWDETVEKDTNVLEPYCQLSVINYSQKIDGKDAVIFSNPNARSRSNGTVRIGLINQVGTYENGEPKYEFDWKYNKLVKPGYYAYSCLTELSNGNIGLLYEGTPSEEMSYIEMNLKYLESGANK

Structure (SMILES): CC(=O)N[C@@H]1[C@@H](O)[C@H](F)[C@](F)(C(=O)O)O[C@H]1[C@H](O)[C@H](O)CO [Compound 1, 5-Acetamido-2,3,5-trideoxy-3-fluoro-D-erythro-α-L-gluco-non-2-ulopyranosylonic fluoride]
- inhibition at 100 µM [1]: 99.2 ± 0.3%
- inhibition at 100 µM [2, 18]: 80.6 ± 0.7%
- inhibition at 100 µM [3, 19]: 99.7 ± 0.3%
- IC50 [4]: > 1000 µM
- inhibition at 100 µM [4]: 11.8 ± 1%
- inhibition at 1000 µM [4]: 30.2 ± 2.2%
- IC50 ([5]; read-out: IC50, SpNanC): > 1000 µM
- inhibition at 100 µM [5]: < 1%
- inhibition at 1000 µM [5]: 25.1 ± 6.1%
- IC50 [6]: 2 ± 0.1 µM
- inhibition at 100 µM [6, 20]: 97.7 ± 0.3%
- inhibition at 100 µM [7, 21]: 95.4 ± 0.9%
- IC50 [8]: > 1000 µM
- inhibition at 100 µM [8]: < 1%
- inhibition at 1000 µM [8]: 4.3 ± 0.1%
- inhibition at 100 µM [9]: 75.4 ± 0.6%

Structure (SMILES): CC(=O)N[C@@H]1[C@@H](O)[C@H](F)[C@](F)(C(=O)O)O[C@H]1[C@H](O)[C@H](O)CN=[N+]=[N-] [Compound 2, 5-Acetamido-9-azido-2,3,5,9-tetradeoxy-3-fluoro-D-erythro-α-L-gluco-non-2-ulopyranosylonic fluoride]
- inhibition at 100 µM [1]: 99.9 ± 0.2%
- IC50 [2]: 0.73 µM
- inhibition at 100 µM [2, 18]: 99.9 ± 0.1%
- IC50 [3]: 0.21 µM
- inhibition at 100 µM [3, 19]: 85.8 ± 0.7%
- inhibition at 100 µM [4]: 26.8 ± 0.2%
- inhibition at 1000 µM [4]: 51.9 ± 2.2%
- inhibition at 100 µM [5]: < 1%
- inhibition at 1000 µM [5]: 53.9 ± 0.1%
- IC50 [6]: 0.73 µM
- inhibition at 100 µM [6, 20]: 99.2 ± 0.5%
- inhibition at 100 µM [7, 21]: 98.9%
- IC50 [8]: > 1000 µM
- inhibition at 100 µM [8]: < 1%
- inhibition at 1000 µM [8]: 9.3 ± 2.3%
- inhibition at 100 µM [9]: 82.3 ± 2.8%
- sensitivity of CpNanI to the covalent inhibitor in the time course study [10]: also sensitive

Structure (SMILES): [N-]=[N+]=N[C@@H]1[C@@H](O)[C@H](F)[C@](F)(C(=O)O)O[C@H]1[C@H](O)[C@H](O)CO [Compound 3, 5-Azido-2,3,5-trideoxy-3-fluoro-D-erythro-α-L-gluco-non-2-ulopyranosylonic fluoride]
- inhibition at 100 µM [1]: 75.2 ± 0.2%
- IC50 [2]: > 1000 µM
- inhibition at 100 µM [2, 18]: 29.8 ± 1.2%
- inhibition at 1000 µM [2, 18]: 30 ± 0.8%
- IC50 [3]: > 1000 µM
- inhibition at 100 µM [3, 19]: < 1%
- inhibition at 1000 µM [3, 19]: 29.6 ± 0.9%
- IC50 [4]: > 1000 µM
- inhibition at 100 µM [4]: 35.1 ± 0.8%
- inhibition at 1000 µM [4]: 38 ± 0.9%
- inhibition at 100 µM [5]: < 1%
- inhibition at 1000 µM [5]: 6.5 ± 0.8%
- inhibition at 100 µM [6, 20]: 25 ± 1%
- inhibition at 1000 µM [6, 20]: 76.6 ± 4.6%
- inhibition at 100 µM [7, 21]: 40.8 ± 3.4%
- inhibition at 1000 µM [7, 21]: 85.6 ± 0.5%
- IC50 [8]: > 1000 µM
- inhibition at 100 µM [8]: < 1%
- inhibition at 1000 µM [8]: 7.8 ± 0.3%
- inhibition at 100 µM [9]: 37.5 ± 1.2%
- inhibition at 1000 µM [9]: 80.7 ± 1.2%

Structure (SMILES): O=C(CO)N[C@@H]1[C@@H](O)[C@H](F)[C@](F)(C(=O)O)O[C@H]1[C@H](O)[C@H](O)CO [Compound 4, 5-glycolamido-2,3,5-trideoxy-3-fluoro-D-erythro-α-L-gluco-non-2-ulopyranosylonic fluoride]
- inhibition at 100 µM [1]: 96.1 ± 0.6%
- inhibition at 100 µM [2, 18]: 71.6 ± 1.2%
- inhibition at 100 µM [3, 19]: 78.4 ± 0.5%
- IC50 [4]: > 1000 µM
- inhibition at 100 µM [4]: 25.3 ± 1.7%
- inhibition at 1000 µM [4]: 26 ± 4.9%
- inhibition at 100 µM [5]: < 1%
- inhibition at 1000 µM [5]: 5.5 ± 0.2%
- IC50 [6]: 1.6 ± 0.1 µM
- inhibition at 100 µM [6, 20]: 97.8 ± 0.1%
- inhibition at 100 µM [7, 21]: 87.3 ± 0.8%
- IC50 [8]: > 1000 µM
- inhibition at 100 µM [8]: < 1%
- inhibition at 1000 µM [8]: 22.4 ± 0.1%
- inhibition at 100 µM [9]: 80.4 ± 1.3%

Structure (SMILES): CC(=O)N[C@@H]1[C@@H](O)[C@@H](F)[C@](F)(C(=O)O)O[C@H]1[C@H](O)[C@H](O)CO [Compound 5, 5-Acetamido-2,3,5-trideoxy-3-fluoro-D-erythro-α-L-manno-non-2-ulopyranosylonic fluoride]
- inhibition at 100 µM [1]: 99.9 ± 0.2%
- IC50 [2]: 0.18 µM
- inhibition at 100 µM [2, 18]: 99.9 ± 0.1%
- IC50 [3]: 0.13 µM
- inhibition at 100 µM [3, 19]: 99.9 ± 0.1%
- IC50 [4]: > 1000 µM
- inhibition at 100 µM [4]: 12 ± 0.2%
- inhibition at 1000 µM [4]: 19 ± 0.2%
- inhibition at 100 µM [5]: < 1%
- inhibition at 1000 µM [5]: 55.2 ± 0.4%
- IC50 [6]: 0.33 µM
- inhibition at 100 µM [6, 20]: 96.8 ± 1.4%
- inhibition at 100 µM [7, 21]: 98.9 ± 0.5%
- IC50 [8]: > 1000 µM
- inhibition at 100 µM [8]: < 1%
- inhibition at 1000 µM [8]: 3 ± 0.6%
- inhibition at 100 µM [9]: 69.7 ± 0.4%

Structure (SMILES): CC(=O)N[C@@H]1[C@@H](O)[C@@H](F)[C@](F)(C(=O)O)O[C@H]1[C@H](O)[C@H](O)CN=[N+]=[N-] [Compound 6, 5-Acetamido-9-azido-2,3,5,9-tetradeoxy-3-fluoro-D-erythro-α-L-manno-non-2-ulopyranosylonic fluoride]
- inhibition at 100 µM [1]: 99.9 ± 0.1%
- IC50 [2]: 0.024 µM
- inhibition at 100 µM [2, 18]: 99.9 ± 0.1%
- IC50 [3]: 0.033 µM
- inhibition at 100 µM [3, 19]: 99.9 ± 0.1%
- IC50 [4]: > 1000 µM
- inhibition at 100 µM [4]: 16.7 ± 1.6%
- inhibition at 1000 µM [4]: 43.8 ± 1.4%
- inhibition at 100 µM [5]: < 1%
- inhibition at 1000 µM [5]: 83.7 ± 3.5%
- IC50 [6]: 0.18 µM
- inhibition at 100 µM [6, 20]: 99.9 ± 0.6%
- IC50 for V. cholerae sialidase better than that for hNEU2 ([6]; selectivity V. cholerae sialidase versus hNEU2): at least 500 fold
- inhibition at 100 µM [7, 21]: 98.8 ± 2.2%
- IC50 for BiNanH2 better than that for hNEU2 ([7]; selectivity BiNanH2 versus hNEU2): at least 500 fold
- IC50 [8]: > 1000 µM
- inhibition at 100 µM [8]: < 1%
- inhibition at 1000 µM [8]: 6 ± 0.4%
- inhibition at 100 µM [9]: 1.5 ± 0.3%
- inhibition at 1000 µM [9]: 53.4 ± 1.3%
- time for de-activation of CpNanI [10]: < 10 min
- sensitivity of CpNanI to the covalent inhibitor in the time course study [10]: sensitive
- time for de-activation of V. cholerae sialidase [11]: < 10 min
- time for de-activation of SpNanA [12]: < 10 min
- sensitivity of SpNanA to the covalent inhibitor in the time course study ([12]; Figures 2C, S2C): sensitive
- time for de-activation of BiNanH2 [13]: < 10 min
- sensitivity of BiNanH2 to the covalent inhibitor in the time course study ([13]; Figures 2D, S2D): sensitive
- sensitivity of hNEU2 to the covalent inhibitor in the time course study [14]: except for hNEU2

Structure (SMILES): CC(=O)N[C@H]1[C@H]([C@H](O)[C@H](O)CO)OC(C(=O)O)=C[C@@H]1O [Neu5Ac2en, 2-deoxy-2,3-didehydro-N-acetylneuraminic acid]
- IC50 [15]: 8.1 ± 0.3 µM
- IC50 [16]: > 1000 µM
- IC50 [17]: > 1000 µM
